The values that follow come from US20180140578A1, “METHODS AND COMPOSITIONS FOR THE DIAGNOSIS AND SELECTIVE TREATMENT OF CANCER” (Board of Regents of the University of Texas System, priority 2016, published 2018).

Assay [1] deals with T1, DCAF15 and RBM39Δ150 (Homo sapiens, UniProt Q14498+Q66K64).
T1 construct: Full-length cDNAs encoding CUL4A, CUL4B, DCAF15, and DDB1 were cloned into pLVX IRES Puro; made in house; host or cells: RBM39Δ150: Sf9 (baculovirus); DCAF15-3xFLAG: anti-FLAG beads from HCT-116 or 293T cells stably expressing it
T1 sequence (Q66K64 whole entry, stated change not applied): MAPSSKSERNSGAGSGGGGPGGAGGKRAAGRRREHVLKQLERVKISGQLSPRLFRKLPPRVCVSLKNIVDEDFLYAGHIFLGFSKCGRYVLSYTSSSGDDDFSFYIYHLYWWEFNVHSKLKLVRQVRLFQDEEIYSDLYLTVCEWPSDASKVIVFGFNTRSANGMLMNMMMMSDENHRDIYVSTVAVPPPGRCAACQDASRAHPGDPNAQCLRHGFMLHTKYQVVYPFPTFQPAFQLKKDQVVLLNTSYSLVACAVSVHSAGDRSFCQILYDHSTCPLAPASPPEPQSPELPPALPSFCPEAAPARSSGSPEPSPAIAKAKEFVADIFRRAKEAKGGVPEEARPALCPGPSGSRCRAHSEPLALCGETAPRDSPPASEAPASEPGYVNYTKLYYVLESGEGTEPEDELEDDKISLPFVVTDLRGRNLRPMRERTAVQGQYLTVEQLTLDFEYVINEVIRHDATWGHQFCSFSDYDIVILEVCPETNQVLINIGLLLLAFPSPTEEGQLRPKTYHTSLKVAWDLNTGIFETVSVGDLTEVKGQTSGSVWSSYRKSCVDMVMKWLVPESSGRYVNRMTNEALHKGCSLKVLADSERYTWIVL
T1 sequence (Q14498 151-530, stated change not applied): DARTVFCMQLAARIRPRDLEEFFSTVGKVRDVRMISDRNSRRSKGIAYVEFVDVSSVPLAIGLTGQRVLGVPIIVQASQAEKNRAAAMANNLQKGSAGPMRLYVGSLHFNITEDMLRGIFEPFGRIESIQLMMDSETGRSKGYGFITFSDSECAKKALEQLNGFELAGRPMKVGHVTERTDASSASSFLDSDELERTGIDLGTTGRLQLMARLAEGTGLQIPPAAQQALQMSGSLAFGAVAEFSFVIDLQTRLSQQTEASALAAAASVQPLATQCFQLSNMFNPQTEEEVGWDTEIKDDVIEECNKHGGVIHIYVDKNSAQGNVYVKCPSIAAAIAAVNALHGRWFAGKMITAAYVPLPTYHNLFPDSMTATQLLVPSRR
T1 sequence (Q16531 2-1140 partner): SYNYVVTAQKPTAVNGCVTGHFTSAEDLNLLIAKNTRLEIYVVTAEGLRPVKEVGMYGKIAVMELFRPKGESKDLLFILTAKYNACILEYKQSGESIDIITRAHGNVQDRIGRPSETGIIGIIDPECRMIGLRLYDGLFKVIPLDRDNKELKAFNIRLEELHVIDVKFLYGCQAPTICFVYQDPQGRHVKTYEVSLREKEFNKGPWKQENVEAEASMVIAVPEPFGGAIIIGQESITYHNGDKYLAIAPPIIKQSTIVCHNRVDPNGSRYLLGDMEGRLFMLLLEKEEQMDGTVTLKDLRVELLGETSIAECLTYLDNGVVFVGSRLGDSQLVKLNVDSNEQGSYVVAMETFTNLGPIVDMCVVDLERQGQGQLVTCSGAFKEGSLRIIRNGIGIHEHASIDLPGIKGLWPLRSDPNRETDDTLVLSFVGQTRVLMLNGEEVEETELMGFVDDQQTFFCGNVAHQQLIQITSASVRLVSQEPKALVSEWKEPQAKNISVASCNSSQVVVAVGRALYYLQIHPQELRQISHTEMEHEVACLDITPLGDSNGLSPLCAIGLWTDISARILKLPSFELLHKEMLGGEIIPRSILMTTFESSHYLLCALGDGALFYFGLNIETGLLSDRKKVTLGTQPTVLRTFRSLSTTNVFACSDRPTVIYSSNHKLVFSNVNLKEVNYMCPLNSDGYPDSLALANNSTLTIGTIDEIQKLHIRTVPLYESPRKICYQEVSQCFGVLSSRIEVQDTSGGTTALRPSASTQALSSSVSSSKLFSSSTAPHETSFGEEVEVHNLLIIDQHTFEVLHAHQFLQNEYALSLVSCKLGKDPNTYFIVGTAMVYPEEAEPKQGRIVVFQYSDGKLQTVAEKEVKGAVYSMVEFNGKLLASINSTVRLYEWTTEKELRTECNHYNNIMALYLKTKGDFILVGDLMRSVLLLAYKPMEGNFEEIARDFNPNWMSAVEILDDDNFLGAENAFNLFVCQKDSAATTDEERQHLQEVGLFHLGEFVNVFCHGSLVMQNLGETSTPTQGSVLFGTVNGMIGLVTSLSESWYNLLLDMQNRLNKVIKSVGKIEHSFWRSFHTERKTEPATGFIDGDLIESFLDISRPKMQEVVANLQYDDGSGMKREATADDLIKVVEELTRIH
Kind of assay: Mass spec quantification of indisulam in RBM39 DCAF15 complex. Type of assay: binding. As to conditions: DCAF15 and wild type RBM39Δ150; 10 μM indisulam. The source says: (§1) RBM39-3xFLAG was immunopurified from HCT-116 cells expressing RBM39-3xFLAG (endogenous tag) using the cryomill procedure. DCAF15-3xFLAG was purified from 293T cells stably expressing DCAF15-3xFLAG through lentiviral transduction. […] Afterwards, beads were washed twice with 1×PBS, 0.1% NP40 and twice with 1×PBS. […] The tolbutamide internal standard (IS) was detected using the transition 269.1 to 169.9 (negative mode; M-H^−). […] The limit of quantitation (lowest quantifiable point on the standard curve with accuracy within 20% upon back calculation and at least 3-fold above background) for this method was 50 pg/ml.

Assay [2] has as its target T2, DCAF15 and RBM39Δ150 (Homo sapiens, UniProt Q14498+Q66K64, P272S).
T2 construct: Full-length cDNAs encoding CUL4A, CUL4B, DCAF15, and DDB1 were cloned into pLVX IRES Puro; made in house; host or cells: RBM39Δ150: Sf9 (baculovirus); DCAF15-3xFLAG: anti-FLAG beads from HCT-116 or 293T cells stably expressing it
The description is as above. As to conditions: DCAF15 and RBM39Δ150 P272S; 10 μM indisulam. Type of assay: binding.
From the text: as §1

Assay [3] relates to DCAF15 and RBM39Δ150. Described as above. It is filed as binding, human.
From the text: as §1

For assay [4], the target named is T3, RBM39-Nluc (Homo sapiens, UniProt Q14498+Q66K64).
T3 construct: Homology directed repair facilitates tagging of endogenous RBM39 by AID, 3xFLAG, AcGFP, or Nanoluciferase; endogenous in cells; host or cells: H1155 RBM39-Nluc knock-in cells
Kind of assay: RBM39-Nluc degradation by Nano-Glo luciferase assay. Type of assay: cell-based. As to conditions: H1155 RBM39-Nluc cells; read-out: decrease in RBM39-Nluc activity (IC50). The procedure:
NanoLuc was knocked-in to the 3-prime end of the RBM39 gene using the procedure described above yielding H1155 RBM39-Nluc cells. […] Luminescence was recorded by EnVision multimode plate reader (Perkin Elmer). IC50 was determined with GraphPad Prism using baseline correction (by normalizing to DMSO control), the asymmetric (five parameter) equation and least squares fit.

For assay [5], the system named is RBM39 with indisulam-resistant mutations. The experiment in a line: RBM39 degradation in resistant cells (western blotting). Type of assay: cell-based, human. As to conditions: resistant cells harboring indisulam-resistant mutations. The procedure:
(§2) Proteins were resolved on SDS-PAGE and transferred to 0.5 μm nitrocellulose membranes. Membranes were blocked in 5% milk TBST for 30 min, and then anti-RBM39 antibodies (HPA001591, Sigma-Aldrich) were added in 5% milk (1:5000) and incubated on a shaker overnight at 4° C. After three 5 min washes with TBST, membranes were incubated with HRP-conjugated goat anti-rabbit secondary antibody (Bio-Rad) for 2 hr at room temperature. After three 5 min washes with TBST, membranes were developed with ECL (enhanced chemiluminescence) substrates.
In general terms: In western blotting, separated proteins are transferred to a membrane and probed.

Assay [6] relates to RBM39 in DCAF15−/− H1155 cells. Kind of assay: RBM39 degradation in DCAF15−/− cells (western blotting). It is filed as cell-based, human. The protocol:
as §2
Two independent guide RNAs targeting DDB1, DDA1, DCAF15 were cloned into PX459. 0.2 million H1155 RBM39-AcGFP cells were transfected with PX459 sgRNA constructs and selected with 2 μg/ml puromycin to enrich for transfected cells. […] Cells were then trypsinized and the expression of RBM39-AGFP was quantified with flow cytometry. H1155 cells transfected with DCAF15 guide RNA were sparsely plated on 10 cm^2 plates and clones were isolated. Genomic DNA sequence flanking the cut site were amplified and sequenced to identify DCAF15−/− clones.

The conditions of assay [7]: advanced stage patients with solid tumors; monotherapy; cited from earlier work.
For assay [8], the target named is T4, RBM39 G268V-3xFLAG with CUL4 complex (Homo sapiens, UniProt Q14498+Q66K64, G268V).
T4 construct: lysate derived from parental cells, RBM39-3xFLAG cells, or RBM39 G268V-3xFLAG cells; endogenous in cells; host or cells: HCT-116 RBM39 G268V-3xFLAG cells (treated cells in A91; lysates in A95)
The experiment in a line: Co-immunoprecipitation of RBM39 G268V-3xFLAG from treated cells. Type of assay: cell-based. Conditions: in the presence of indisulam. The protocol:
(§3) Anti-Flag M2 antibody (Sigma-Aldrich) was coupled to Dynabeads M-270 epoxy beads (Life Technologies) at the ratio of 10 μg of antibody/mg beads. […] Frozen cells were then pulverized in the a cryomill (Retsch) with one 25 mm steel ball and five cycles of three min at 25 Hz with intermittent cooling in liquid nitrogen. […] The lysates were centrifuged at 8000 g for 5 min at 4° C. 12 mg of conjugated Anti-Flag magnetic beads were mixed with clarified lysates for 5 min at 4° C. on a rotating platform, followed by three washes with IP buffer. Bound proteins were eluted with 1 mg/ml 3xFLAG peptide, followed by SDS-PAGE on a 10% Bis Tris gel. After brief electrophoresis, bands containing all the proteins were cut with clean blades. For western blotting of co-immunoprecipitated proteins, anti-DDA1 (ProteinTech, 14995-1-AP, 1:1000), anti-DDB1 (Abcam, ab109027, 1;10000), anti-CUL4A (Cell Signaling, 2699, 1:1000), anti-CUL4B (ProteinTech, 12916-1-AP, 1:1000) were used.

Assay [9] has as its target T5, RBM39-3xFLAG with DDA1, DDB1, CUL4A, CUL4B (Homo sapiens, UniProt Q14498+Q66K64).
T5 construct: endogenous in cells; host or cells: HCT-116 RBM39-3xFLAG knock-in cells (treated cells in A90)
The experiment in a line: Co-immunoprecipitation of RBM39-3xFLAG from treated cells. It is filed as cell-based. As to conditions: cells treated with indisulam but not DMSO. The procedure: as §3

T2 sequence (Q66K64 whole entry, stated change not applied): as the sequence (Q66K64 whole entry, stated change not applied) above
T2 sequence (Q14498 151-530 P272S, stated change not applied): as the sequence (Q14498 151-530, stated change not applied) above, with P122S counted along it
T2 sequence (Q16531 2-1140 partner, stated change not applied): as the sequence (Q16531 2-1140 partner) above

Take `NS(=O)(=O)c1ccc(S(=O)(=O)Nc2cccc3c(Cl)c[nH]c23)cc1` [Indisulam, indisulam]: the “amount of indisulam in complex (LC-MS)” value in assay [1] is “highest levels of indisulam”; in assay [2] it was “lower levels of indisulam”; in assay [3] (DCAF15 and M265L or E271Q variants of RBM39Δ150) it was “no indisulam was detected”. Also, the “amount of indisulam (LC-MS)” value in assay [3] (either DCAF15 or RBM39 alone) is “no indisulam was identified”. Besides, in assay [4], the DC50 is 360 nM. The RBM39 protein levels entry in [5] was “no effect”. Besides, the “RBM39 degradation in response to indisulam” value in [6] is given as “failed to degrade RBM39”. In addition, the stable disease in assay [7] was 17-36 % of patients. Besides, the “recruitment of RBM39 G268V to the CUL4 complex” value in assay [8] was “not recruited”. The “co-purification of RBM39-3xFLAG with DDA1, DDB1, CUL4A, CUL4B” value in assay [9] is “co-purified”.
